#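 Protocol summary: plate cells (96-well), add compound at 5 concentrations, incubate 48 h, interpolate endpoints linearly. At the GI50, growth is halved. Definition used: TGI = concentration required for complete inhibition of growth.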
# Experiments:
# Assay in all cases: NCI tumour cell line growth inhibition, 48 h
# HL-60(TB) leukemia = tested on: HL-60(TB) leukemia
# M14 melanoma = tested on: M14 melanoma
# OVCAR-3 ovarian = tested on: OVCAR-3 ovarian
# K-562 leukemia = tested on: K-562 leukemia
# HCT-15 colon = tested on: HCT-15 colon
# NCI-H460 lung = tested on: NCI-H460 lung
# MCF7 breast = tested on: MCF7 breast
# MOLT-4 leukemia = tested on: MOLT-4 leukemia
# PC-3 prostate = tested on: PC-3 prostate
# SK-OV-3 ovarian = tested on: SK-OV-3 ovarian
# SK-MEL-5 melanoma = tested on: SK-MEL-5 melanoma
# OVCAR-8 ovarian = tested on: OVCAR-8 ovarian
# SF-268 CNS = tested on: SF-268 CNS
# NCI-H522 lung = tested on: NCI-H522 lung
# A549 NSCLC = tested on: A549 NSCLC
# KM12 colon = tested on: KM12 colon
# UACC-62 melanoma = tested on: UACC-62 melanoma
# BT-549 breast = tested on: BT-549 breast
# COLO 205 colon = tested on: COLO 205 colon
# MDA-MB-231 breast = tested on: MDA-MB-231 breast
# SF-295 CNS = tested on: SF-295 CNS
# HOP-92 NSCLC = tested on: HOP-92 NSCLC
# 786-0 renal = tested on: 786-0 renal
# NCI/ADR-RES ovarian = tested on: NCI/ADR-RES ovarian
# SK-MEL-28 melanoma = tested on: SK-MEL-28 melanoma
# HS 578T breast = tested on: HS 578T breast
# T-47D breast = tested on: T-47D breast
# SNB-19 CNS = tested on: SNB-19 CNS
# HCC-2998 colon = tested on: HCC-2998 colon
# UO-31 renal = tested on: UO-31 renal
# NCI-H226 lung = tested on: NCI-H226 lung
# CCRF-CEM leukemia = tested on: CCRF-CEM leukemia
# ACHN renal = tested on: ACHN renal
# UACC-257 melanoma = tested on: UACC-257 melanoma
# OVCAR-5 ovarian = tested on: OVCAR-5 ovarian
# SR leukemia = tested on: SR leukemia
# SF-539 CNS = tested on: SF-539 CNS
# SK-MEL-2 melanoma = tested on: SK-MEL-2 melanoma
# HOP-62 NSCLC = tested on: HOP-62 NSCLC
# MALME-3M melanoma = tested on: MALME-3M melanoma
# TK-10 renal = tested on: TK-10 renal
# HT29 colon = tested on: HT29 colon
# RPMI-8226 leukemia = tested on: RPMI-8226 leukemia
# SNB-75 CNS = tested on: SNB-75 CNS
# SN12C renal = tested on: SN12C renal
# NCI-H23 lung = tested on: NCI-H23 lung
# HCT-116 colon = tested on: HCT-116 colon
# MDA-MB-435 = tested on: MDA-MB-435
# LOX IMVI melanoma = tested on: LOX IMVI melanoma
# SW-620 colon = tested on: SW-620 colon
# EKVX NSCLC = tested on: EKVX NSCLC
# IGROV1 ovarian = tested on: IGROV1 ovarian
# RXF 393 renal = tested on: RXF 393 renal
# OVCAR-4 ovarian = tested on: OVCAR-4 ovarian
# U251 CNS = tested on: U251 CNS
# A498 renal = tested on: A498 renal
smiles,measurement,setting,value
C/C=C\C(=O)O[C@@H]1CC2O[C@@H]3C=C(C)C(=O)C[C@]3(C)[C@]1(C)[C@]21CO1,GI50,HL-60(TB) leukemia,522 nM
same,TGI,HL-60(TB) leukemia,1350 nM
same,GI50,M14 melanoma,431 nM
same,TGI,M14 melanoma,962 nM
same,GI50,OVCAR-3 ovarian,783 nM
same,TGI,OVCAR-3 ovarian,3080 nM
same,GI50,K-562 leukemia,507 nM
same,TGI,K-562 leukemia,4480 nM
same,GI50,HCT-15 colon,671 nM
same,TGI,HCT-15 colon,16500 nM
same,GI50,NCI-H460 lung,668 nM
same,TGI,NCI-H460 lung,4400 nM
same,GI50,MCF7 breast,459 nM
same,TGI,MCF7 breast,14900 nM
same,GI50,MOLT-4 leukemia,581 nM
same,TGI,MOLT-4 leukemia,2240 nM
same,GI50,PC-3 prostate,799 nM
same,TGI,PC-3 prostate,8120 nM
same,GI50,SK-OV-3 ovarian,896 nM
same,TGI,SK-OV-3 ovarian,6560 nM
same,GI50,SK-MEL-5 melanoma,528 nM
same,TGI,SK-MEL-5 melanoma,1370 nM
same,GI50,OVCAR-8 ovarian,756 nM
same,TGI,OVCAR-8 ovarian,5490 nM
same,GI50,SF-268 CNS,743 nM
same,TGI,SF-268 CNS,5450 nM
same,GI50,NCI-H522 lung,486 nM
same,TGI,NCI-H522 lung,1620 nM
same,GI50,A549 NSCLC,795 nM
same,TGI,A549 NSCLC,10300 nM
same,GI50,KM12 colon,567 nM
same,TGI,KM12 colon,5550 nM
same,GI50,UACC-62 melanoma,653 nM
same,TGI,UACC-62 melanoma,2420 nM
same,GI50,BT-549 breast,699 nM
same,TGI,BT-549 breast,1920 nM
same,GI50,COLO 205 colon,459 nM
same,TGI,COLO 205 colon,1160 nM
same,GI50,MDA-MB-231 breast,604 nM
same,TGI,MDA-MB-231 breast,2030 nM
same,GI50,SF-295 CNS,715 nM
same,TGI,SF-295 CNS,4770 nM
same,GI50,HOP-92 NSCLC,538 nM
same,TGI,HOP-92 NSCLC,1890 nM
same,GI50,786-0 renal,615 nM
same,TGI,786-0 renal,3370 nM
same,GI50,NCI/ADR-RES ovarian,783 nM
same,TGI,NCI/ADR-RES ovarian,8300 nM
same,GI50,SK-MEL-28 melanoma,471 nM
same,TGI,SK-MEL-28 melanoma,1560 nM
same,GI50,HS 578T breast,723 nM
same,TGI,HS 578T breast,2310 nM
same,GI50,T-47D breast,529 nM
same,TGI,T-47D breast,1970 nM
same,GI50,SNB-19 CNS,565 nM
same,TGI,SNB-19 CNS,3330 nM
same,GI50,HCC-2998 colon,769 nM
same,TGI,HCC-2998 colon,2720 nM
same,GI50,UO-31 renal,712 nM
same,TGI,UO-31 renal,4310 nM
same,GI50,NCI-H226 lung,648 nM
same,TGI,NCI-H226 lung,4360 nM
same,GI50,CCRF-CEM leukemia,422 nM
same,TGI,CCRF-CEM leukemia,25000 nM
same,GI50,ACHN renal,642 nM
same,TGI,ACHN renal,2770 nM
same,GI50,UACC-257 melanoma,599 nM
same,TGI,UACC-257 melanoma,2110 nM
same,GI50,OVCAR-5 ovarian,796 nM
same,TGI,OVCAR-5 ovarian,3820 nM
same,GI50,SR leukemia,670 nM
same,TGI,SR leukemia,3040 nM
same,GI50,SF-539 CNS,622 nM
same,TGI,SF-539 CNS,1540 nM
same,GI50,SK-MEL-2 melanoma,468 nM
same,TGI,SK-MEL-2 melanoma,1480 nM
same,GI50,HOP-62 NSCLC,639 nM
same,TGI,HOP-62 NSCLC,1980 nM
same,GI50,MALME-3M melanoma,612 nM
same,TGI,MALME-3M melanoma,2370 nM
same,GI50,TK-10 renal,664 nM
same,TGI,TK-10 renal,2500 nM
same,GI50,HT29 colon,534 nM
same,TGI,HT29 colon,2330 nM
same,GI50,RPMI-8226 leukemia,522 nM
same,TGI,RPMI-8226 leukemia,1500 nM
same,GI50,SNB-75 CNS,470 nM
same,TGI,SNB-75 CNS,1960 nM
same,GI50,SN12C renal,643 nM
same,TGI,SN12C renal,3890 nM
same,GI50,NCI-H23 lung,587 nM
same,TGI,NCI-H23 lung,2140 nM
same,GI50,HCT-116 colon,429 nM
same,TGI,HCT-116 colon,2630 nM
same,GI50,MDA-MB-435,660 nM
same,TGI,MDA-MB-435,2670 nM
same,GI50,LOX IMVI melanoma,209 nM
same,TGI,LOX IMVI melanoma,1640 nM
same,GI50,SW-620 colon,634 nM
same,TGI,SW-620 colon,6280 nM
same,GI50,EKVX NSCLC,873 nM
same,TGI,EKVX NSCLC,5700 nM
same,GI50,IGROV1 ovarian,842 nM
same,TGI,IGROV1 ovarian,6440 nM
same,GI50,RXF 393 renal,499 nM
same,TGI,RXF 393 renal,1620 nM
same,GI50,OVCAR-4 ovarian,632 nM
same,TGI,OVCAR-4 ovarian,1930 nM
same,GI50,U251 CNS,648 nM
same,TGI,U251 CNS,5600 nM
same,GI50,A498 renal,676 nM
same,TGI,A498 renal,2380 nM

# — PubChem BioAssay (NCI)
